From patent EP2322149A1, “Methods and compositions for the treatment of ischemia” (Universidad del Pais Vasco, priority 2009, dated 2011)
Several values for one entry are separate records, joined by “and”; a condition that tells them apart may be missing. Equal values may be shown once. Entries after “also recorded” stand apart in the source; their conditions may differ. Where a name gives a salt, the structure may show the parent alone. Read-outs that look alike come from different tables or passages of the source.

Key:
optic nerve [1] = assay: Compound action potential of isolated optic nerves perfused with ATP; design: species or system C57BL6 mice; details: ATP 10 mM, 3h (180 min), 37°C, compared to matched controls
P2X7 = biological target: T1, P2X7 (Homo sapiens, UniProt Q99572); details: cited from earlier work
T1 sequence (Q99572 1-595): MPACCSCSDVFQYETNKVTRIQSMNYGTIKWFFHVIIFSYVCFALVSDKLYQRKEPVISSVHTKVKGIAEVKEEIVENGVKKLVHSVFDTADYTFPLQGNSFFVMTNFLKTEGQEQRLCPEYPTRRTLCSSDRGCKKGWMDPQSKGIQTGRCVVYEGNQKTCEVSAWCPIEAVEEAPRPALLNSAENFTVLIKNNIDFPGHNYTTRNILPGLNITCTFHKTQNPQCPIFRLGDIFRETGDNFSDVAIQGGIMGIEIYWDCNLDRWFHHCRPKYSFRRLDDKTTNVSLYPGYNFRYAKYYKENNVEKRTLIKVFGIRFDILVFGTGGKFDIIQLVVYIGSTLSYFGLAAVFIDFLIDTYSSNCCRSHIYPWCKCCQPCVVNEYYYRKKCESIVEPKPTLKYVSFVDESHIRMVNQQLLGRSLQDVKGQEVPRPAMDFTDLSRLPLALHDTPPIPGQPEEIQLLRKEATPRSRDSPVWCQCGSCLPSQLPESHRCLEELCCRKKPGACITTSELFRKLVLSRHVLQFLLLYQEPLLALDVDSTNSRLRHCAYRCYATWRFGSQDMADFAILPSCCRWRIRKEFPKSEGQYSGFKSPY

optic nerves = assay: Optic nerve ischaemia (OGD), tissue damage by LDH release; design: species or system rats
Procedure: After 1h OGD at 37°C, the medium was replaced with fresh solution containing glucose and equilibrated with 95% O2, 5% CO2 and the nerves were incubated for another 2h at 37°C to simulate reperfusion.

optic nerve [2] = tested on: optic nerve
[3] = tested on: optic nerve oligodendrocytes; assay: Whole-cell recording of ischaemic inward current in cultured oligodendrocytes (chemical ischaemia); assay type: cell-based, Sprague-Dawley rats
Procedure: After 2-4 days in vitro, cultures were composed of at least 98% 04/Ga1C^+ cells. No microglial cells were detected in these cultures. […] Cell death was determined 24h later using calcein-AM (Invitrogen) as previously described (Matute et al., 1997 Proc Natl Acad Sci U S A 94:8830-8835.). Antagonists were present during in vitro ischaemia and during the next 24h incubation period. […] Calcein was used to quantify the number of cells within the reading field. Fluorescence was measured as above and values were plotted as the percentage of DCFDA/calcein red-orange fluorescence versus control. […] Molecular Probes). […] The changes in the membrane potential were calculated as the red (emission at 590)/green (emission at 520) ratio in each condition and results were normalized to control. Whole cell recordings were performed at room temperature and at a holding membrane potential of -70 mV. Extracellular bath solution with a pH of 7.3 contained (in mM): […] Patch clamp pipettes (3-5 MΩ) were filled with internal solution at a pH of 7.3 containing (in mM): CsCI 140, CaC12 2, MgC12 2, HEPES 10, EGTA 11, Na-ATP 2. For electrophysiology monitoring, ischaemia was induced chemically by using the glycolytic blocker iodoacetate (1 mM) and the oxidative phosphorylation inhibitor antimycin (2.5 μM), and omitting glucose because recordings were performed in an open chamber where O2 can diffuse to the cells (Káradóttir et al., 2005). Recordings of ATP currents were performed in divalent cation-free extracellular solutions, obtained by omitting Ca^2+ and Mg^2+, to potentiate P2X-mediated responses (Matute et al., 1997 Proc Natl Acad Sci U S A 94:8830-8835.). […] Molecular Probes, Inc., Eugene, OR) in culture medium for 30 min at 37 °C. Experiments were carried out in a coverslip chamber continuously perfused with a buffer containing 20 mM HEPES, 2 mM CaC12, 10 mM glucose in HBSS at 1 ml/min. The perfusion chamber was mounted on the stage of a Zeiss inverted epifluorescence microscope (Axiovert 35), equipped with a 150 W xenon lamp Polychrome IV (TILL Photonics GMBH) and a Plan Neofluar 40x oil immersion objective (Zeiss, Germany). Cells were visualized with a high resolution digital B/W CCD camera (ORCA; Hamamatsu Photonics Iberica, Barcelona, Spain) and image acquisition and data analysis were carried out using the AquaCosmos software program (Hamamatsu Photonics Iberica). Images were acquired every 30 ms at 37°C and ischaemia was induced as above. […] At the end of the assay, in situ calibration was carried out with the successive addition of […] and 2M Tris/50 mM EGTA, pH 8.5. Data were analyzed with Excel and Prism software.

[4] = tested on: optic nerve oligodendrocytes; assay: Ca2+ imaging (fura-2) of oligodendrocytes during chemical ischaemia; assay type: cell-based, Sprague-Dawley rats
Procedure: After 2-4 days in vitro, cultures were composed of at least 98% 04/Ga1C^+ cells. No microglial cells were detected in these cultures. […] Cell death was determined 24h later using calcein-AM (Invitrogen) as previously described (Matute et al., 1997 Proc Natl Acad Sci U S A 94:8830-8835.). Antagonists were present during in vitro ischaemia and during the next 24h incubation period. […] Calcein was used to quantify the number of cells within the reading field. Fluorescence was measured as above and values were plotted as the percentage of DCFDA/calcein red-orange fluorescence versus control. […] Molecular Probes). […] The changes in the membrane potential were calculated as the red (emission at 590)/green (emission at 520) ratio in each condition and results were normalized to control. Whole cell recordings were performed at room temperature and at a holding membrane potential of -70 mV. Extracellular bath solution with a pH of 7.3 contained (in mM): […] Patch clamp pipettes (3-5 MΩ) were filled with internal solution at a pH of 7.3 containing (in mM): CsCI 140, CaC12 2, MgC12 2, HEPES 10, EGTA 11, Na-ATP 2. […] Data were analyzed with Excel and Prism software.

P2X4 = biological target: T2, P2X4 (Homo sapiens, UniProt Q99571); details: read-out: IC50 P2X4; cited from earlier work
T2 sequence (Q99571 1-388): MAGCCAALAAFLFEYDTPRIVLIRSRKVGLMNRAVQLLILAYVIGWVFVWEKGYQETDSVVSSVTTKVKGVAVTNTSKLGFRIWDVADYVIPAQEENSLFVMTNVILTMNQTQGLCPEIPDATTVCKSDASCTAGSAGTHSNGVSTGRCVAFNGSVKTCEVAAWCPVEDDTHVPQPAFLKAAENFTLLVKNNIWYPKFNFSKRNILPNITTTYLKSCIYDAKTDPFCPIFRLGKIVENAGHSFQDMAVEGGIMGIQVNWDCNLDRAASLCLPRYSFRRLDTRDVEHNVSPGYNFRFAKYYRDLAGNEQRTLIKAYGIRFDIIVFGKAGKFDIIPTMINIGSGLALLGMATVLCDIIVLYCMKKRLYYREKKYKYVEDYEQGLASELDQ

P2X3 = biological target: T3, P2X3 (Homo sapiens, UniProt P56373); details: read-out: IC50 P2X3; cited from earlier work
T3 sequence (P56373 1-397): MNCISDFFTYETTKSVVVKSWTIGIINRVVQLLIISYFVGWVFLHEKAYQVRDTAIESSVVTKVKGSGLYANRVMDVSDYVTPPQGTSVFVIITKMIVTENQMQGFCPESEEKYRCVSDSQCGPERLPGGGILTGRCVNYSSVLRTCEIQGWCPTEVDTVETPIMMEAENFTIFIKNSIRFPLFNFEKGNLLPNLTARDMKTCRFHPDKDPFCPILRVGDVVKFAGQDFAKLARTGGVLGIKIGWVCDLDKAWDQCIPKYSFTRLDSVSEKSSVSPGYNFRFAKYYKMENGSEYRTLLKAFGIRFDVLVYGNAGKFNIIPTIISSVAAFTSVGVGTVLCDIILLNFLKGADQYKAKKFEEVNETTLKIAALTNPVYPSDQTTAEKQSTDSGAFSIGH

[5] = tested on: optic nerve oligodendrocytes; assay: Oxygen and glucose deprivation (OGD) cell death in oligodendrocyte cultures (calcein-AM); assay type: cell-based, Sprague-Dawley rats; details: 1h OGD, calcein 24h later; PPADS 100 µM, BBG 50 nM, CNQX 30 µM, APV 100 µM, apyrase 20 U/ml, ARL67156 100 µM, CBX 20 µM, FFA 100 µM, MFQ 1 nM
Procedure: Primary cultures of oligodendrocytes derived from optic nerves of 12 day-old Sprague-Dawley rats were obtained as previously described (Matute et al., 1997 Proc Natl Acad Sci U S A 94:8830-8835.).Cells were maintained at 37°C and 5% CO2 in a chemically defined medium (Matute et al., 1997 Proc Natl Acad Sci U S A 94:8830-8835.). After 2-4 days in vitro, cultures were composed of at least 98% 04/Ga1C^+ cells. No microglial cells were detected in these cultures. […] Cell death was determined 24h later using calcein-AM (Invitrogen) as previously described (Matute et al., 1997 Proc Natl Acad Sci U S A 94:8830-8835.). Antagonists were present during in vitro ischaemia and during the next 24h incubation period. […] To assay the levels of reactive oxygen species (ROS), cells were loaded with 40 µM 2',7'- dichlorodihyfluoresceindiacetate (DCFDA; Invitrogen) and 1 µM calcein red-orange (Molecular Probes) immediately after OGD. Calcein was used to quantify the number of cells within the reading field. Fluorescence was measured as above and values were plotted as the percentage of DCFDA/calcein red-orange fluorescence versus control. The changes in mitochondrial membrane potential were monitored with 5,5',6,6'-tetrachloro-1,1',3,3'-tetraethylbenzimidazolcarbocyanine iodide (JC-1; Molecular Probes). Immediately after OGD, cells were loaded with JC-1 (3 µM) at 37°C for 30 min. The changes in the membrane potential were calculated as the red (emission at 590)/green (emission at 520) ratio in each condition and results were normalized to control.

[6] = tested on: optic nerve oligodendrocytes; assay: Reactive oxygen species (DCFDA) after OGD in oligodendrocyte cultures; assay type: cell-based, Sprague-Dawley rats; details: 1 h OGD; BBG 50 nM, PPADS 100 µM
Procedure: (§1) Primary cultures of oligodendrocytes derived from optic nerves of 12 day-old Sprague-Dawley rats were obtained as previously described (Matute et al., 1997 Proc Natl Acad Sci U S A 94:8830-8835.).Cells were maintained at 37°C and 5% CO2 in a chemically defined medium (Matute et al., 1997 Proc Natl Acad Sci U S A 94:8830-8835.). After 2-4 days in vitro, cultures were composed of at least 98% 04/Ga1C^+ cells. No microglial cells were detected in these cultures. […] Cell death was determined 24h later using calcein-AM (Invitrogen) as previously described (Matute et al., 1997 Proc Natl Acad Sci U S A 94:8830-8835.). Antagonists were present during in vitro ischaemia and during the next 24h incubation period. […] Calcein was used to quantify the number of cells within the reading field. Fluorescence was measured as above and values were plotted as the percentage of DCFDA/calcein red-orange fluorescence versus control. The changes in mitochondrial membrane potential were monitored with 5,5',6,6'-tetrachloro-1,1',3,3'-tetraethylbenzimidazolcarbocyanine iodide (JC-1; Molecular Probes). […] The changes in the membrane potential were calculated as the red (emission at 590)/green (emission at 520) ratio in each condition and results were normalized to control.

[7] = tested on: optic nerve oligodendrocytes; assay: Mitochondrial membrane potential (JC-1) after OGD in oligodendrocyte cultures; assay type: cell-based, Sprague-Dawley rats; details: 1 h OGD; BBG 50 nM, PPADS 100 µM
Procedure: as §1

[8] = tested on: AMPA and kainate receptors; assay: Glutamate receptor agonist (AMPA, kainate) induced oligodendrocyte death (calcein fluorescence); assay type: cell-based, Sprague-Dawley rats; details: AMPA (100 µM) + cyclothiazide (100 µM), or kainate (3 mM) + GYKI 53655 (50 µM); PPADS 100 µM, BBG 50 nM
Procedure: as §1

Pannexin hemichannels = details: cited from earlier work

Nc1ncnc2c1ncn2[C@@H]1O[C@H](COP(=O)(O)OP(=O)(O)OP(=O)(O)O)[C@@H](O)[C@H]1O [ATP]
reduction in CAP area (optic nerve [1]): 50% and 50.1 ± 10.5%

Nc1ncnc2c1ncn2[C@@H](C=O)O[C@@H](C=O)COP(=O)(O)OP(=O)(O)OP(=O)(O)O [o-ATP, the sodium salt of adenosine 5-triphosphate, oxidized with periodate]
IC50 (P2X7): 5 µM | OGD-induced damage at all developmental stages (optic nerves): decreased; also recorded: protected | ischaemia-induced damage to optic nerves (LDH release) (optic nerves): prevented; also recorded: reduced | recovery of axon function (CAP area) after the ischaemic insult (optic nerve [2]): significantly improved | ischaemic inward currents [3]: significantly reduced | increase in [Ca2+]i caused by ischaemia [4]: significantly blocked; also recorded: significantly reduced

O=C(Nc1cccc(C(=O)Nc2ccc(S(=O)(=O)O)c3cc(S(=O)(=O)O)cc(S(=O)(=O)O)c23)c1)Nc1cccc(C(=O)Nc2ccc(S(=O)(=O)O)c3cc(S(=O)(=O)O)cc(S(=O)(=O)O)c23)c1 [NF023]
IC50 (P2X4): > 100 µM | IC50 (P2X3): < 29 µM

CCOc1ccc(Nc2ccc(C(=C3C=CC(=[N+](CC)Cc4cccc(S(=O)(=O)[O-])c4)C=C3C)c3ccc(N(CC)Cc4cccc(S(=O)(=O)O)c4)cc3C)cc2)cc1 [BBG, Coomassie brilliant blue G]
ischaemia-induced damage to optic nerves (LDH release) (optic nerves; P28 rat optic nerves, 1h OGD + 2h reperfusion, PPADS 1 mM, BBG 50 nM, oATP 1 mM, apyrase 20 U/ml, MFQ 1 µM, CBX 100 µM, FFA 1 mM): prevented; also recorded: reduced | OGD-induced damage at all developmental stages (optic nerves; premyelinating (P7), myelinating (P14) and mature (P28) optic nerves): decreased; also recorded: protected | recovery of axon function (CAP area) after the ischaemic insult (optic nerve [2]; 60 min after 1 h OGD, BBG 50 nM, o-ATP 1 mM): significantly improved | OGD-induced oligodendrocyte cell death [5]: significantly reduced | OGD-induced currents ([3]; BBG 50 nM, CNQX (30 µM) plus APV (100 µM) applied before the onset of ischemia): inhibited | OGD currents after drug application versus OGD currents before drug application ([3]; after washing the antagonists out, average over BBG and PPADS, n= 15): 134 ± 32% | ischaemic inward currents ([3]; chemical ischaemia (iodoacetate, antimycin, no glucose), -70 mV, PPADS 100 µM, oATP 1 mM, BBG 50 nM): significantly reduced; also recorded: partial block | generation of radical oxygen species (ROS) [6]: prevented | mitochondrial depolarization [7]: prevented | IC50 (P2X3): > 10 µM | glutamate receptor-induced oligodendrocyte death [8]: did not significantly inhibit

CC1(C)[C@@H](OC(=O)CCC(=O)O)CC[C@]2(C)[C@H]3C(=O)C=C4[C@@H]5C[C@@](C)(C(=O)O)CC[C@]5(C)CC[C@@]4(C)[C@]3(C)CC[C@@H]12 [Carbenoxolone disodium]
IC50 (Pannexin hemichannels): ~5 µM
